Assay results reported in US10329304B2, “Compounds and methods for inhibition of hedgehog signaling and phosphodiesterase” (Vanderbilt University, priority 2014, dated 2019).
“Also recorded” adds a separate entry of the source. Where two headings read alike, the source gives them in different places.

Assays:
[1] = tested on: PDE4D3-induced Hh reporter activity; experiment: Hh reporter activity in Shh-Light2 cells transfected with PDE4D3; type: cell-based; details: 5 μM
Procedure: (§1) For Hh signaling assays, Shh-Light2 cells stably transfected with Gli-Luciferase reporter construct were used along with Shh-conditioned media, as previously described^7. Alternatively, 3 μM purmorphamine or 20 nM Smoothened agonist (SAG) (Santa Cruz Biotechnology, Santa Cruz, Calif.) was used to induce Hh signaling. Reporter cells were seeded in 96-well plates and incubated overnight with the various concentrations of eggmanone and Shh-conditioned media. To assess the effects of overexpression of Gli-2, PDE4D3 and DN-PDE4D3 on Hh signaling, mammalian expression vectors containing these constructs were transfected into Shh-Light2 cells in 96-well plates using Fugene6 (Roche), according to manufacturer's instructions. The transfected or Shh-stimulated cells were incubated overnight with the various concentrations of compound. The cells were then lysed, and cell extracts were subjected to Steady-Glo luciferase assay (Promega) according to manufacturer's instructions. The results were normalized to cell titer, as determined using Cell Titer-Glo luminescence assay (Promega).

ptch1 expression [2] = experiment: Whole mount zebrafish in situ hybridization for ptch1; type: in vivo; details: 2 μM from 4 hpf
Procedure: In situ hybridization was performed as previously described. Zebrafish ptch1 probes were produced as previously described.

BMP signaling (BRE-luc) = experiment: BMP4-responsive reporter (BRE-luc) in C2C12BRA cells; type: cell-based; details: stimulated with BMP4 ligand
otic kino-cilia motility = experiment: Video-microscopy of zebrafish otic kino-cilia; type: in vivo; details: 2 μM
From the text: For visualizing ciliary beating, live embryos (20 hpf) were removed from their chorion, mounted in SeaPlaque low-melting agarose (Biowhittaker Molecular Applications) (1.0% in embryo medium) in microwells of glass-bottom culture dishes (MatTek), and covered with embryo medium. Movies were acquired by using OPENLAB software (Improvision) at 55 frames per second with a 63×DIC objective on a Zeiss Axiovert 200 inverted fluorescence microscope equipped with a Retiga Exi Fast camera (Qimaging). Kymographs were obtained by drawing a line across a ciliary trajectory by using ImageJ software (National Institutes of Health, developed by W. Rasband) and Multiple-Kymograph plugin (developed by J. Rietdorf and A. Seitz).

11 PDE families = experiment: In vitro PDE activity assays across 11 PDE families; type: biochemical
Procedure: In vitro PDE profiling and dose-response assays were performed by BPS Biosciences (San Diego, Calif.). Kinetic Mechanism of inhibition studies were conducted by Millipore (St. Louis, Mo.). In brief, the PDE assay measures fluorescent polarization of FAM-AMP as FAM-cAMP is converted to FAM-AMP by PDE), the binding agent.
A series of dilutions of the test compound were prepared with 10% DMSO in assay buffer and 5 μl of the dilution was added to a 50 μl reaction so that the final concentration of DMSO is 1% in all of reactions. All of the PDE enzymatic reactions were conducted in duplicate at room temperature for 60 minutes in a 50 μl mixture containing PDE assay buffer (10 mM Tris-HCl, pH7.4, 10 mM MaCl2, 0.05% Tween 20), 100 nM FAM-cAMP, a PDE enzyme and a test compound.
After the enzymatic reaction, 100 μl of a binding solution (1:100 dilution of the binding agent, which contains the nano beads that recognize FAM-AMP, with the binding agent diluent) was added to each reaction and the reaction was performed at room temperature for 60 minutes. Fluorescence intensity was measured at an excitation of 485 nm and an emission of 528 nm using a Tecan Infinite M1000 microplate reader. Assays done by Millipore were conducted similarly with changes noted below: […]

ptch1 expression [3] = experiment: RT-PCR of ptch1 in NIH3T3 cells stimulated with purmorphamine; type: cell-based; details: NIH3T3 fibroblasts
Procedure: NIH3T3 cells were stimulated with 3 μM purmorphamine in the presence of eggmanone or DMSO for 24-hours. Cells were collected and RNA isolated with RNeasy kit (Qiagen, Valencia, Calif.). After subsequent cDNA amplification using Superscript III (Invitrogen, Carlsbad, Calif.), samples were quantified by comparing Q-PCR cycle thresholds (Ct) for gene expression normalized to GAPDH. The following TaqMan probe and primer sets (Applied Biosystems) were used: GAPDH (Mm99999915_g1), and Patch1 (Mm01306905_mi).

[4] = tested on: Gli-Luc reporter activity; experiment: Gli-luciferase reporter under Gli overexpression; type: cell-based
Procedure: as §1

[5] = Mouse echocardiography after IP injection; type: in vivo; details: for Heart rate: 5 mg/kg to 20 mg/kg IP
Procedure: As shown below (FIGS. 28 and 29), ionotropic effects are seen within 30 minutes of eggmanone administration to a mouse (20 mg/kg IP injection). […] Mechanistically compound EGM targets the hydrolase PDE4. In Human adult myocardium, PDE4 localizes strictly to the z-bands.

IFT88 localization = experiment: IFT88 immunostaining in NIH3T3 cells; type: cell-based; details: EGM 5 μM; ciliobrevin D 100 μM
From the text: To investigate whether the disruption of the cilium-to-nucleus trafficking of Gli2 by eggmanone was due to a general defect in the retrograde transport within the primary cilium, we compared the effect of the cytoplasmic dynein motor inhibitor ciliobrevin D with the effect of eggmanone on the intraflagellar transport protein 88 (IFT88) trafficking^19. […] Thus, the effects of eggmanone on Gli2 trafficking is specific, rather than an indirect consequence of a global defect in ciliary transport machinery.

SmoM2-Light cells = experiment: Cell viability of SmoM2-Light cells; type: cell-based
Procedure: Cancer cell lines were seeded in 96 well tissue culture plate at a low density (10,000 cells per well) and treated with varying concentrations of Eggmanone. After 72 hr incubation, CellTiter-Blue Cell Viability Assay (Promega, Madison, Wis.) was then performed according to manufacturer's protocol. Absorbance was then measured in a Modulus Microplate reader (Promega, Madison, Wis.) at 590 nm and compared to cells treated with DMSO.

[6] = Lipophilic efficiency (LipE = pEC50 − cLogP) and cLogP
Procedure, shortened: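 pEC50 came from TM3-Gli-Luc Gli-responsive luciferase reporter cells stimulated with 20 nM SAG, with non-specific cytotoxicity monitored in parallel. LipE was calculated by subtracting cLogP from pEC50.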

[7] = healthy wild type mice and mice with heart failure
[8] = Calculated as pEC50 - cLogP, Molinspiration Cheminformatics

C=C(C)Cn1c(SCC(=O)c2cccs2)nc2sc3c(c2c1=O)CCCC3 [EGM, Eggmanone]
Hh reporter activity induced by wild-type PDE4D3 overexpression [1]: abolished | Hh-responsive ptch1 expression in embryos (ptch1 expression [2]): abolished Hh-responsive ptch1 expression in adaxial cells; also recorded: abolished Hh-responsive ptc1 expression in adaxial cells; also recorded: abolished Hh-responsive ptch1 expression in somites | BMP4-responsive reporter (BRE-luc) activity (BMP signaling (BRE-luc)): had no significant effects on BMP4-responsive reporter (BRE-luc) activity | Otic kino-cilia movement (otic kino-cilia motility): cilium movement is markedly reduced | Otic kino-cilia movement (otic kino-cilia motility; listed as Egm): cilia movement is markedly reduced | Inhibition across PDE families (11 PDE families; 10 μM (10 and 50 μM)): significantly inhibited only the PDE4 class | ptch1 expression in response to purmorphamine (ptch1 expression [3]): significantly inhibited ptch1 expression in response to purmorphamine | Gli-luciferase reporter activity under Gli2 overexpression [4]: had no significant effect on Gli-luciferase reporter activity under Gli2 overexpression conditions | Heart rate [5]: without increasing heart rate; also recorded: does not increase the heart rate | End-diastolic left ventricular internal dimension (LVIDd) [5, 7]: decreases end-diastolic left ventricular internal dimension (LVIDd) | Fractional shortening (FS) [5, 7]: increases fractional shortening (FS) | Side effects ([5]; mice): no significant side effects | Time to return to baseline heart function ([5]; mice): ≤ 24 h | IFT88 localization in the cilium (IFT88 localization): did not affect IFT88 localization | Viability of SmoM2 cells (SmoM2-Light cells; listed as Egm): rapid (within 24-hrs) decline in viability

C=C(C)Cn1c(SCC(=O)c2cccs2)nc2sc3c(c2c1=O)CCCC3 [Eggmanone, 3-(2-methylallyl)-2-((2-oxo-2-(thiophen-2-yl)ethyl)thio)-5,6,7,8-tetrahydrobenzo[4,5]thieno[2,3-d]pyrimidine-4(3H)-one]
Hh reporter activity induced by wild-type PDE4D3 overexpression [1]: abrogated; also recorded: abolished | Hh reporter activity induced by wild-type PDE4D3 overexpression ([1]; listed as eggmanone): abrogated | Hh-responsive ptch1 expression in embryos (ptch1 expression [2]): abrogated the expression of the Hh target gene patched-1 (ptch1) | BMP4-responsive reporter (BRE-luc) activity (BMP signaling (BRE-luc)): did not affect BMP-responsive luciferase reporter activity; also recorded: had no significant effects on BMP4-responsive reporter (BRE-luc) activity | BMP4-responsive reporter (BRE-luc) activity (BMP signaling (BRE-luc); listed as eggmanone): did not affect BMP-responsive luciferase reporter activity | Otic kino-cilia movement (otic kino-cilia motility): markedly less motile | Otic kino-cilia movement (otic kino-cilia motility; listed as eggmanone): markedly less motile | Inhibition across PDE families (11 PDE families; 10 μM (10 and 50 μM in b110)): significantly inhibited only the PDE4 family | Inhibition across PDE families (11 PDE families; 10 μM (10 and 50 μM in b110), listed as eggmanone): significantly inhibited only the cAMP specific PDE4 family | ptch1 expression in response to purmorphamine (ptch1 expression [3]): significantly inhibited ptch1 expression in response to purmorphamine | Gli-luciferase reporter activity under Gli2 overexpression [4]: did not block Gli-Luc reporter activity in cells transiently overexpressing Gli2 | Heart rate [5]: without increasing heart rate | Time to ionotropic effects ([5]; 20 mg/kg IP injection): ≤ 30 min | Fractional shortening (FS) [5, 7]: increases fractional shortening (FS) and ejection fraction (EF) | IFT88 localization in the cilium (IFT88 localization): had no effect on IFT88 localization or cilium morphology | Viability of SmoM2 cells (SmoM2-Light cells): efficiently and selectively killed SmoM2-Light cells

CCCn1c(SCC(=O)c2cccs2)nc2sc3c(c2c1=O)CCCC3 [Formula 9e]
LipE [6, 8]: 1.06 | LipE ([6]; pEC50 - cLogP, Table 14): 1.06

C=C(C)Cn1c(SCC(=O)c2ccccc2)nc2sc3c(c2c1=O)CCCC3 [Formula 9g]
LipE [6, 8]: −0.01 | LipE ([6]; pEC50 - cLogP, Table 14): −0.01
